{
  "source": "patent US20190112357A1",
  "about": "“PREVENTION OF PROTEIN DISULFIDE BOND REDUCTION” (MedImmune, LLC, priority 2016, published 2019)",
  "format_in_all_cases": "physicochemical",
  "key": {"[1]": {"assay": "Free thiol quantitation in HCCF by disulfide mapping mass spectrometry", "settings": "2 mM cystine, 2 week hold, versus starting material", "procedure": "The amount of free thiol in harvested cell culture fluid was determined by matching predicted masses of disulfide-linked peptides to observed masses from non-reducing Lys-C peptide mapping. Briefly, the sample was denatured and diluted prior to digestion with a serine protease. Following protease digestion, half of each reaction mixture was reduced by the addition of DTT. The digests were separated by RP-HPLC using a C18 column and analyzed using a UV-detector and an on-line mass spectrometer. Disulfide-bond linked peptides are only present in non-reducing runs and will disappear under reducing conditions."}, "[2]": {"assay": "Antibody aggregation analysis (HP-SEC)", "settings": "EDTA 9.5, 19, 38 mM or Cystine 4 and 8 mM", "procedure": "The percent of antibody aggregates was determined using standard size exclusion chromatography (HP-SEC) methods. An Agilent 1200 series system was used with a Tosoh Bioscience TSKgel G3000SW XL column (Tosoh Bioscience LLC, King of Prussia, Pa.) (7.8 mm×300 mm) at 1 mL/min flow rate using a mobile phase buffer of 0.1 M sodium phosphate, 0.1 M sodium sulfate, pH 6.8. The absorbance chromatography at 280 nm was used to quantify the results."}, "[3]": {"assay": "Antibody reduction potential assay (Vacuum/GX)", "settings": "EDTA 9.5, 19, 38 mM or Cystine 4 and 8 mM", "procedure": "Bioreactor samples (1 mL) were obtained daily and centrifuged at 3000-4000 RPM and the supernatant was frozen immediately at −80° C. On the day prior to the assay, the samples were removed from −80° C. storage, thawed, and placed in a vacuum chamber at room temperature overnight to induce reduction of the monoclonal antibody without the interference of oxygen. After the vacuum hold, the samples were analyzed for protein fragmentation under non-reducing conditions using a BioAnalyzer system (Agilent Technologies) or a LABCHIP® GXII system (PerkinElmer) to detect antibody fragments resulting from the breakage of the antibody's interchain disulfide bonds. […]\nSamples were stored frozen until analyzed. […] After being denatured and the free thiols being capped by NEM, the samples were analyzed using a Perkin Elmer Labchip® GXII (Perkin Elmer, Waltham, Mass.) to perform size fractionation and quantification. Using the Labchip® GXII, the protein and fragments were detected by laser-induced fluorescence and translated into gel-like images (bands) and electropherograms (peaks).\nReduction potential, i.e. the potential of the molecule to be reduced under anaerobic condition, was measured by subjecting samples to vacuum analysis as described above followed addition of non-reducing sample buffer. […]"}, "[4]": {"assay": "Non-reduced GX (NR-GX) analysis of HCCF and purification products", "settings": "2 weeks at 2° C.-8° C., bags without headspace", "procedure": "Samples were stored frozen until analyzed. Once thawed, 400-600 μL of each sample was transferred to culture tubes and mixed in non-reducing sample buffer containing N-Ethylmaleimide (NEM). After being denatured and the free thiols being capped by NEM, the samples were analyzed using a Perkin Elmer Labchip® GXII (Perkin Elmer, Waltham, Mass.) to perform size fractionation and quantification. Using the Labchip® GXII, the protein and fragments were detected by laser-induced fluorescence and translated into gel-like images (bands) and electropherograms (peaks).\nThe high levels of impurities were first detected in the capture product and were carried through the subsequent steps in the process."}},
  "data": [
    {"smiles": "N[C@@H](CSSC[C@H](N)C(=O)O)C(=O)O", "note": "[cystine, L-cystine]", "values": [
      {"measurement": "inter-chain free thiol in HCCF by the end of the hold", "setting": "[1]", "value": "higher level of inter-chain free thiol"},
      {"measurement": "aggregation of sheared mAb E material after 8 days at 2-8° C.", "setting": "[2]", "value": "limited the extent of mAb aggregation"},
      {"measurement": "reduction potential at the time of harvest of sheared mAb E material", "setting": "[3]", "value": "no reduction potential"},
      {"measurement": "reduction of mAb B in HCCF by the end of the hold (NR-GX)", "setting": "[4]; 2 mM cystine", "value": "reduction had set in"},
      {"measurement": "reduction of mAb B in HCCF by the end of the hold (NR-GX)", "setting": "[4]; 4 mM cystine", "value": "no signs of reduction"}
    ]}
  ]
}
